Assay results published in US20210253598A1, “ARYL ANNULATED MACROCYCLIC INDOLE DERIVATIVES” (priority 2017, published 2021).
“And” between values parts separate entries of the source, which are not always exact repeats. Equal entries are not always repeated. Structures can show the parent of a compound that is named as a salt. Where two headings read alike, the source gives them in different places.

Columns and labels:
A2780 = test: Anti-proliferative effect in A2780 cells, CellTiter-Glo (Assay 7); format: cell-based; conditions: Homo sapiens, A2780, 72 h, several values per example
Outline: (§1)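 CellTiter-Glo luminescence after 72 h compound exposure at 37 °C; a parallel time-zero plate was read the same way. IC50 derived relative to day 0 signal and DMSO control.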

SUDHL10 [1] = test: Induction of caspase-3/7 activity in SUDHL10 cells (Assay 4); format: cell-based
Outline: (§2)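 DLBCL lines SUDHL5 and SUDHL10 were treated with compound for 3 h at 37 °C. Caspase-3/7 activity was then read by Caspase-Glo 3/7 luminescence after 1 h at 37 °C. Medium-only background was subtracted and values were normalized to the mean of DMSO-treated cells.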

BCL-2 = BCL-2 (Homo sapiens, UniProt P10415); test: Protein-protein interaction assay BCL-2/Bad BH3 peptide, TR-FRET (BCL-2 assay, Assay 3); format: binding; conditions: His-BCL-2 / Bad BH3 peptide, median
Description: The dose-dependent inhibition by the compounds described in this invention of the interaction between BCL-2 and the BH3 domain of Bad (both human) was determined using a steady state binding competition assay with time-resolved fluorescence energy transfer (TR-FRET) readout. For that purpose BCL-2 (amino acids 1-211, C-terminal fused to a hexahistidine (6×His) tag (SEQ ID 5) and a synthetic Bad BH3-derived peptide of sequence Biotin-PEG2-PEG2-[sequence]-Nle-[sequence]-amide (SEQ ID 4) served as protein receptor and tracer ligand respectively. The recombinant BCL-2 protein (expressed in E. coli) was purchased from BPS Bioscience (San Diego, Calif., USA). The Bad BH3-derived peptide can be obtained from e.g. Biosyntan (Berlin, Germany).
For that, 100-fold concentrated DMSO solutions were prepared by serial dilutions (1:3.4) of a 2 mM stock solution in a clear, 384-well microtiter plate (Greiner Bio-One, Frickenhausen, Germany). From there, 50 nl were transferred in a dark test plate (Greiner Bio-One, Frickenhausen, Germany). The assay was initiated by addition of 2 μl of a 2,5-fold concentrated His-BCL-2 solution (usually for a 1 nM end concentration in 5 μl reaction volume) in aqueous assay buffer [50 mM Tris/HCl pH 7, 100 mM sodium chloride (NaCl), 50 mM potassium fluoride (KF), 0.005% Tween-20, 2 mM DTT, 0.1% bovine gamma globulin (BGG)] to the compounds in the assay plate. This was followed by a 10-minute incubation step at 22° C. for pre-equilibration of the putative complex between His-BCL-2 and the compounds.
The mixture was incubated in the dark for one hour at 22° C. and then overnight at 4° C. The formation of BCL-2/Bad complexes was determined by measuring the resonance energy transfer of the anti-His-Eu-cryptate antibody to the streptavidin-XL665 present in the reaction. For that purpose, the fluorescence emission at 620 nm and 665 nm after excitation at 330-350 nm was measured in a TR-FRET measuring instrument, for instance a Rubystar or a Pherastar (both from BMG Lab Technologies, Offenburg, Germany) or a Viewlux (Perkin-Elmer). The ratio of the emission at 665 nm and at 622 nm was used as indicator of the amount of BCL-2/Bad complexes present.
(§4) The resulting data (ratio) were normalized, taking 0% inhibition as the mean value of control measurements (usually 32 data points) where all reagents were included. In this case 50 nl DMSO were used instead of compounds. […] IC50 values were determined by regression analysis based on a 4 parameter equation (minimum, maximum, IC50, Hill; Y=Max+(Min−Max)/(1+(X/IC50)^Hill) using the Screener Software (Genedata).

AMO-1 = test: Anti-proliferative effect in AMO-1 cells, CellTiter-Glo (Assay 7); format: cell-based; conditions: several values per example
Outline: as §1

SUDHL5 [2] = test: Induction of caspase-3/7 activity in SUDHL5 cells (Assay 4); format: cell-based
Outline: as §2

SUDHL10 [3] = test: Induction of cytotoxicity in SUDHL10 cells, CellTiter-Glo (Assay 6); format: cell-based; conditions: SUDHL10, 5 hours incubation, median, read-out: Cytotox SUDHL10 [M] (median)
Outline: (§3)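 Cells plated and held overnight at 37° C in a humidified incubator, then compound-treated for 5 hours at 37° C. Viability read by CellTiter-Glo luminescence after 15 minutes shaking at room temperature; cell-free medium served as control.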

SUDHL5 [4] = test: Anti-proliferative effect in SUDHL5 cells, CellTiter-Glo (Assay 7); format: cell-based
Outline: as §1

SUDHL5 [5] = test: Induction of cytotoxicity in SUDHL5 cells, CellTiter-Glo (Assay 6); format: cell-based; conditions: SUDHL5, 5 hours incubation, median, read-out: Cytotox SUDHL5 [M] (median)
Outline: as §3

BCL-XL = BCL-XL (Homo sapiens, UniProt Q07817); test: Protein-protein interaction assay BCL-XL/Bad BH3 peptide, TR-FRET (BCL-XL assay, Assay 2); format: binding; conditions: His-BCL-XL / Bad BH3 peptide, median
Description: Protein-Protein Interaction Assay: BCL-XL/Bad BH3 Peptide (BCL-XL Assay)
The dose-dependent inhibition by the compounds described in this invention of the interaction between BCL-XL and the BH3 domain of Bad (both human) was determined using a steady state binding competition assay with time-resolved fluorescence energy transfer (TR-FRET) readout. For that purpose BCL-XL (amino acids 1-212, C-terminal fused to a hexahistidine (6×His) tag (SEQ ID 3) and a synthetic Bad BH3-derived peptide of sequence Biotin-PEG2-PEG2-[sequence]-Nle-[sequence]-amide (SEQ ID 4) served as protein receptor and tracer ligand respectively. The recombinant BCL-XL protein (expressed in E. coli) was purchased from BPS Bioscience (San Diego, Calif., USA). The Bad BH3-derived peptide can be obtained from e.g. Biosyntan (Berlin, Germany).
For that, 100-fold concentrated DMSO solutions were prepared by serial dilutions (1:3.4) of a 2 mM stock solution in a clear, 384-well microtiter plate (Greiner Bio-One, Frickenhausen, Germany). From there, 50 nl were transferred in a dark test plate (Greiner Bio-One, Frickenhausen, Germany). The assay was initiated by addition of 2 μl of a 2,5-fold concentrated His-BCL-XL solution (usually for a 1 nM end concentration in 5 μl reaction volume) in aqueous assay buffer [50 mM Tris/HCl pH 7, 100 mM sodium chloride (NaCl), 50 mM potassium fluoride (KF), 0.005% Tween-20, 2 mM DTT, 0.1% bovine gamma globulin (BGG)] to the compounds in the assay plate. This was followed by a 10-minute incubation step at 22° C. for pre-equilibration of the putative complex between His-BCL-XL and the compounds.
The mixture was incubated in the dark for one hour at 22° C. and then overnight at 4° C. The formation of BCL-XL/Bad complexes was determined by measuring the resonance energy transfer of the anti-His- Eu-cryptate antibody to the streptavidin-XL665 present in the reaction. For that purpose, the fluorescence emission at 620 nm and 665 nm after excitation at 330-350 nm was measured in a TR-FRET measuring instrument, for instance a Rubystar or a Pherastar (both from BMG Lab Technologies, Offenburg, Germany) or a Viewlux (Perkin-Elmer). The ratio of the emission at 665 nm and at 622 nm was used as indicator of the amount of BCL-XL/Bad complexes present.
as §4

MCL-1 = MCL-1 (Homo sapiens, UniProt Q07820, K194A/K197A/R201A); test: Protein-protein interaction assay MCL-1/Noxa BH3 peptide, TR-FRET (MCL-1 assay, Assay 1); format: binding; conditions: MCL-1 Assay [M] (median), MBP-MCL-1 / Noxa BH3 peptide
Outline: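 Human MBP-fused MCL-1 (aa 173-321; 1 nM final) was pre-incubated 10 min at 22 °C with compound in pH 7 Tris buffer containing NaCl, KF, Tween-20, DTT and BGG. Displacement of biotinylated Noxa BH3 peptide was read by TR-FRET (anti-MBP-Eu cryptate/streptavidin-XL665) after 1 h at 22 °C plus overnight at 4 °C. IC50 came from four-parameter fits against DMSO controls.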

MV-4-11 = test: Anti-proliferative effect in MV-4-11 cells, CellTiter-Glo (Assay 7); format: cell-based; conditions: several values per example
Outline: as §1

[6] = A2780, 72 hours incubation, CellTiter-Glo, read-out: Antiproli A2780
[7] = Homo sapiens, SU-DHL10, 3 h, SUDHL10, 3 hours treatment, Caspase-Glo 3/7, median, read-out: Caspase SUDHL10 [M] (median)
[8] = Homo sapiens, AMO1, 72 h, AMO-1, 72 hours incubation, CellTiter-Glo, read-out: Antiproli AMO-1
[9] = Homo sapiens, SU-DHL-5, 3 h, SUDHL5, 3 hours treatment, Caspase-Glo 3/7, median, read-out: Caspase SUDHL5 [M] (median)
[10] = Homo sapiens, SU-DHL-5, 72 h, SUDHL5, 72 hours incubation, CellTiter-Glo, median, read-out: Antiproli SUDHL5 [M] (median)
[11] = AMO-1, 72 hours incubation, CellTiter-Glo, read-out: Antiproli AMO-1
[12] = Homo sapiens, MV4-11, 72 h, MV-4-11, 72 hours incubation, CellTiter-Glo, read-out: Antiproli MV-4-11
[13] = MV-4-11, 72 hours incubation, CellTiter-Glo, read-out: Antiproli MV-4-11
[14] = read-out: Antiproli A2780 [M], A2780, 72 hours incubation, CellTiter-Glo
[15] = read-out: Caspase SUDHL10 [M] (median), SUDHL10, 3 hours treatment, Caspase-Glo 3/7
[16] = read-out: Antiproli AMO-1, AMO-1, 72 hours incubation, CellTiter-Glo
[17] = read-out: Caspase SUDHL5 [M] (median), SUDHL5, 3 hours treatment, Caspase-Glo 3/7
[18] = read-out: Antiproli SUDHL5 [M] (median), SUDHL5, 72 hours incubation, CellTiter-Glo

BCL-2, sequence (P10415 1-211): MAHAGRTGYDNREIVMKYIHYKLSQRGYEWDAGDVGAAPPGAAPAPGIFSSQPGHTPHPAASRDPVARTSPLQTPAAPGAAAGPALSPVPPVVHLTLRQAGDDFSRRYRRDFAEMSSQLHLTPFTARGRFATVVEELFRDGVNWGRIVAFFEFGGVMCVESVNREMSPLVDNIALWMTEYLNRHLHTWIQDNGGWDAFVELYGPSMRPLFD
MCL-1, sequence (Q07820 173-321 K194A/K197A/R201A, looked up): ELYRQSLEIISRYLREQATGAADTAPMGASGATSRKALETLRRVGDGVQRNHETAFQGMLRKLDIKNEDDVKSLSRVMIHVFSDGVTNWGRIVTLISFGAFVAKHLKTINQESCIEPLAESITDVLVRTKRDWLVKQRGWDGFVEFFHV
BCL-XL, sequence (Q07817 1-212): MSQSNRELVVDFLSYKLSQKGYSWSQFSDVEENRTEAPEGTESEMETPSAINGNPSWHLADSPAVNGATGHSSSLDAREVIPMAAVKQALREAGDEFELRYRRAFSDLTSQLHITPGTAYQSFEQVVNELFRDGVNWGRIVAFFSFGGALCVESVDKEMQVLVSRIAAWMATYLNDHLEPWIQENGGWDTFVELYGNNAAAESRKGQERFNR

Row | EC50 (SUDHL10 [1]; [7]) [M] | EC50 (SUDHL5 [2]; [9]) [M] | IC50 (SUDHL5 [4]; [10]) [M] | SMILES | IC50 (BCL-2) [µM] | IC50 (AMO-1; [8]) [M] | IC50 (SUDHL10 [3]; Homo sapiens, SU-DHL10, 5 h) [M] | IC50 (SUDHL5 [5]; Homo sapiens, SU-DHL-5, 5 h) [M] | IC50 (BCL-XL) [µM] | IC50 (MCL-1) [M] | IC50 (A2780; [14]) [M] | EC50 (SUDHL10 [1]; [15]) [M] | IC50 (AMO-1; [16]) | EC50 (SUDHL5 [2]; [17]) [M] | IC50 (SUDHL10 [3]) [M] | IC50 (SUDHL5 [5]) [M] | IC50 (SUDHL5 [4]; [18]) [M] | other results
1 | 8.4e-06 | 2.4e-06 | 5.8e-06 | CCc1c2c(nn1C)COCc1ccccc1Cn1c(C(=O)O)c(CCCOc3cccc4c3CCCC4)c3ccc(F)c-2c31 (racemic) [Example 77, (rac)-14-Ethyl-15-fluoro-13-methyl-1-(3-((5,6,7,8-tetrahydronaphthalen-1-yl)oxy)propyl)-4,9,11,13-tetrahydrobenzo[3,4]pyrazolo[4′,3′:9,10][1]oxa[6]azacycloundecino[8,7,6-hi]indole-2-carboxylic Acid] | 12.6 | 7.22e-06 | 6.2e-06 | 3e-06 | > 20 | – | – | – | – | – | – | – | – | IC50 (A2780; [6]): 1.02e-05 M
2 | > 2.5e-05 | 5.2e-06 | 7.7e-06 | Cc1nn(C)c2c1-c1c(F)ccc3c(CCCOc4cccc5ccccc45)c(C(=O)O)n(c13)Cc1ccccc1COC2 (racemic) [Example 80, (rac)-15-Fluoro-12,14-dimethyl-1-(3-(naphthalen-1-yloxy)propyl)-4,9,11,12-tetrahydrobenzo-[3,4]pyrazolo[4′,3′:9,10][1]oxa[6]azacycloundecino[8,7,6-hi]indole-2-carboxylic Acid] | > 20 | 2.57e-05 | > 1.1e-05 | 4.3e-06 | > 20 | 7.6e-09 | – | – | – | – | – | – | – | IC50 (A2780; [6]): 1.78e-05 M
3 | 9.4e-06 | 2.3e-06 | 2.1e-06 | CCc1nn(C)c2c1-c1c(F)ccc3c(CCCOc4cccc5c4CCC5)c(C(=O)O)n(c13)Cc1ccccc1COC2 (racemic) [Example 87, (rac)-1-(3-((2,3-Dihydro-1H-inden-4-yl)oxy)propyl)-14-ethyl-15-fluoro-12-methyl-4,9,11,12-tetrahydrobenzo[3,4]pyrazolo[4′,3′:9,10][1,6]oxaazacycloundecino[8,7,6-hi]indole-2-carboxylic Acid] | 13.7 | 1.29e-05 | 6e-06 | 3.2e-06 | > 20 | 4.5e-09 | – | – | – | – | – | – | – | IC50 (AMO-1; [11]): 6.64e-06 M; IC50 (MV-4-11; [12]): 1.24e-05 M; IC50 (MV-4-11; [13]): 6.98e-06 M
4 | 1.2e-05 | 2.8e-06 | 3.6e-06 | CCc1nn(C)c2c1-c1c(F)ccc3c(CCCOc4cccc5ccccc45)c(C(=O)O)n(c13)Cc1ccccc1COC2 (racemic) [Example 91, (rac)-14-Ethyl-15-fluoro-12-methyl-1-(3-(naphthalen-1-yloxy)propyl)-4,9,11,12-tetrahydrobenzo[3,4]pyrazolo[4′,3′:9,10][1,6]oxaazacycloundecino[8,7,6-hi]indole-2-carboxylic Acid] | ≥ 20.5 | 1.87e-05 | 7.5e-06 | 3.2e-06 | > 20 | 8.6e-09 | – | – | – | – | – | – | – | IC50 (AMO-1; [11]): 1.53e-05 M; IC50 (MV-4-11; [12]): 1.24e-05 M; IC50 (MV-4-11; [13]): 1.17e-05 M
5 | – | – | – | Cc1c2c(nn1C)CN(C)Cc1ccccc1Cn1c(C(=O)O)c(CCCOc3cccc4ccccc34)c3cccc-2c31 (single isomer, unassigned; enantiomer 1) [Example 15, 4,5,8-Trimethyl-17-[3-(naphthalen-1-yloxy)propyl]-7,8,9,14-tetrahydro-5H-indolo[1,7-bc]-pyrazolo[4,3-e][2,8]benzodiazacycloundecine-16-carboxylic acid-N-ethylethanamine Salt (Enantiomer 1)] | > 20 | – | – | – | > 20 | 6.9e-09 | > 3.3e-05 | 1.2e-05 | 6.25e-06 M and 5.63e-06 M | 2.6e-06 | 1.1e-05 | 3.3e-06 | – | IC50 (SUDHL5 [4]; Homo sapiens, SU-DHL-5, 72 h, read-out: Antiproli SUDHL5 [M] (median), SUDHL5, 72 hours incubation, CellTiter-Glo): 2.8e-06 M
6 | – | – | – | Cc1c2c(nn1C)COCc1cccnc1Cn1c(C(=O)O)c(CCCOc3cccc4ccccc34)c3ccc(Cl)c-2c31 (single isomer, unassigned; enantiomer 1) [Example 40, 3-Chloro-4,5-dimethyl-17-[3-(naphthalen-1-yloxy)propyl]-5,7,9,14-tetrahydropyrazolo-[4′,3′:9,10]pyrido[3′,2′:3,4][1,6]oxazacycloundecino[8,7,6-hi]indole-16-carboxylic acid-N-ethylethanamine Salt (Enantiomer 1)] | > 20 | – | 8.3e-06 | 3.3e-06 | 19.4 | – | 2.19e-05 | – | 9.07e-06 M | 2.5e-06 | – | – | 2.2e-06 | EC50 (SUDHL10 [1]; Homo sapiens, SU-DHL10, 3 h, read-out: Caspase SUDHL10 [M] (median), SUDHL10, 3 hours treatment, Caspase-Glo 3/7): 1.4e-05 M; IC50 (AMO-1; Homo sapiens, AMO1, 72 h, read-out: Antiproli AMO-1 [M], AMO-1, 72 hours incubation, CellTiter-Glo): 7.53e-06 M
7 | – | – | – | CCc1c2c(nn1C)COCc1ccccc1Cn1c(C(=O)O)c(CCCOc3cccc4ccccc34)c3ccc(F)c-2c31 (single isomer, unassigned; enantiomer 1) [Example 71, (−)-4-Ethyl-3-fluoro-5-methyl-17-{3-[(naphthalen-1-yl)oxy]propyl}-5,7,9,14-tetrahydroindolo[7,1-fg]pyrazolo[3,4-d][2,8]benzoxazacycloundecine-16-carboxylic acid-N-ethylethanamine Salt (Enantiomer 1)] | 12.8 | – | – | – | > 20 | 1.2e-09 | 9.41e-06 | 4e-06 | 3.48e-06 M | 1.6e-06 | 3.6e-06 | 1.9e-06 | 2.5e-06 | IC50 (MV-4-11; Homo sapiens, MV4-11, 72 h, read-out: Antiproli MV-4-11 [M], MV-4-11, 72 hours incubation, CellTiter-Glo): 4.81e-06 M
8 | – | – | – | CCc1c2c(nn1C)COCc1ccccc1Cn1c(C(=O)O)c(CCCOc3cccc4cc(F)ccc34)c3ccc(F)c-2c31 (single isomer, unassigned; enantiomer 1) [Example 74, (−)-4-Ethyl-3-fluoro-17-{3-[(6-fluoronaphthalen-1-yl)oxy]propyl}-5-methyl-5,7,9,14-tetrahydroindolo[7,1-fg]pyrazolo[3,4-d][2,8]benzoxazacycloundecine-16-carboxylic acid-N-ethylethanamine Salt (Enantiomer 1)] | 19.8 | – | – | – | > 20 | 9.2e-10 | – | 1.2e-06 | 1.78e-06 M | 8.2e-07 | 1.4e-06 | 1.1e-06 | 1.3e-06 | IC50 (MV-4-11; read-out: Antiproli MV-4-11, MV-4-11, 72 hours incubation, CellTiter-Glo): 3.65e-06 M
